One experiment addresses Cannabinoid receptor 2 (Homo sapiens, UniProt P34972). Description: Displacement of [3H]CP55940 from human recombinant CB2 receptor expressed in HEK293 cells after 90 mins. The class given is cell-based.
The next experiment deals with Cannabinoid receptor 1 (Homo sapiens, UniProt P21554). Kind of experiment: Displacement of [3H]CP55940 from human recombinant CB1 receptor expressed in HEK293 cells after 90 mins. The class given is cell-based.
Experiment [1] concerns NCI-H460. Kind of experiment: Cytotoxicity against human H460 cells assessed as cell survival up to 20 ug/ml. The class given is functional, cell-based.
Another experiment is filed under the species Homo sapiens. Kind of experiment: Selectivity ratio of IC50 for human recombinant CB1 receptor to IC50 for human recombinant CB2 receptor.
In experiment [2] the test system is NCI-H460. Kind of experiment: Cytotoxicity against human H460 cells assessed as cell survival at 50 ug/ml. The class given is functional. The note with it: read-out: Activity.
The subject of experiment [3] is NCI-H460. Description: Cytotoxicity against human H460 cells assessed as cell survival at 5 ug/ml. The class given is functional. The note with it: read-out: Activity.

The structures appear in SMILES notation. Active and inactive are the calls of the source. The rule behind the calls is not given here. Some results are limits rather than exact numbers.

Chain of Cannabinoid receptor 1 (P21554 whole entry): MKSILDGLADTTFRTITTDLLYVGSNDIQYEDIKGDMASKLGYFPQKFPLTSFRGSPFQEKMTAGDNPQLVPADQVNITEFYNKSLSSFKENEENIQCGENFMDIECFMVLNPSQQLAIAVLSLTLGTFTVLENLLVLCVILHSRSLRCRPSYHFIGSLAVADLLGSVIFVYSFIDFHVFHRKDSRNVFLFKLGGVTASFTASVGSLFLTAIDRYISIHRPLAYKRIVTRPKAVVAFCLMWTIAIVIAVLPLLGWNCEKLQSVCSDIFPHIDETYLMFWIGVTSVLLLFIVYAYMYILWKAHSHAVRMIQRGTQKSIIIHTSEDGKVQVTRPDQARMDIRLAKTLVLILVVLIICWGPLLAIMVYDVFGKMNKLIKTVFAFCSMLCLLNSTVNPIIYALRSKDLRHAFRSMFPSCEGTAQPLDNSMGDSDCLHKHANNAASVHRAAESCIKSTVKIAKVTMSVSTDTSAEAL
Chain of Cannabinoid receptor 2 (P34972 whole entry): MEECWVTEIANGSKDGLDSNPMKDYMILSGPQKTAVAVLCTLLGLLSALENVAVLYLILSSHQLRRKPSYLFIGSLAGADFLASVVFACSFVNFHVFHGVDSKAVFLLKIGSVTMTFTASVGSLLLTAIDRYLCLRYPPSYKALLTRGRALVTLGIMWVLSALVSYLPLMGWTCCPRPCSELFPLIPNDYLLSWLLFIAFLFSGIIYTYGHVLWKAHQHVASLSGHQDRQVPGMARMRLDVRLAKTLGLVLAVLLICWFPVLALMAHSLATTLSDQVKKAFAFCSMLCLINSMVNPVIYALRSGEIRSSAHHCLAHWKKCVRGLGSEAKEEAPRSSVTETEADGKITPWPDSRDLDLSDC

As to `C=C(CCCCCCCCCCCCC)CCCC(=O)O/C=C\COC(C)=O`, the IC50 at Cannabinoid receptor 2 and at Cannabinoid receptor 1 was over 10 µM throughout. Besides, the outcome in the experiment with NCI-H460 [1] was inactive.
With `CCCCC/C=C\C/C=C\C/C=C\C/C=C\CCCC(=O)N[C@@H](CO)C(=O)O`, the Ki on Cannabinoid receptor 2 and on Cannabinoid receptor 1 was over 10 µM each time.
Consider `CCCCCCCCCCCCC/C=C/CCC(=O)N(C)[C@H](CO)COC` [SERINOLAMIDE A], for which the 50% inhibitory concentration (IC50) at Cannabinoid receptor 2 was over 10 µM. Further, on Cannabinoid receptor 1, the IC50 stood at 2.3 µM and the inhibition constant (Ki) stood at 1.3 µM. Also, the Ratio IC50 in the experiment filed under Homo sapiens is over 5. Also, the viability at 50 µg/mL with NCI-H460 [2] turned out to be 0%. The viability at 5 µg/mL in the experiment with NCI-H460 [3] was found to be 60%.

(Values after ChEMBL document CHEMBL1926606, “Cannabinomimetic lipid from a marine cyanobacterium” (J Nat Prod, 2011).)
